Experimental data reported in the SangsterLogP compilation.

Test: method code SF-AS, from DOI: 10.1016/0009-2797(77)90026-6

Compound	logP
O=NN1CCCCCCCC1	2.04
CC1CN(N=O)C(C)CN1N=O (configuration not stated)	0.15
CC1CCCC(C)N1N=O (configuration not stated)	1.36
CC1CN(N=O)CC(C)N1 (configuration not stated)	0.73
O=NN1CCCC1	-0.19
CC1CN(N=O)CC(C)N1N=O (configuration not stated)	0.08
CC(C)(C)C1CCN(N=O)CC1	2.54
CC1CN(C(=O)c2ccccc2)CC(C)N1N=O (configuration not stated)	1.04
COCCN(CCOC)N=O	-0.38
CC1CN(N=O)CC(C)N1C(=O)c1ccccc1 (configuration not stated)	1.41
CC1C(C)N(N=O)C(C)C(C)N1N=O (configuration not stated)	0.91
CCN(CC)C(=O)N(CC)N=O	1.54
CN(CC(C)(C)C)N=O	1.34
O=NN1CCC(Br)C(Br)C1 (configuration not stated)	1.23
N#CCCN(CCC#N)N=O	0.08
CC1CCC(C)N1N=O (configuration not stated)	0.86
O=NN1CCSCC1	0.4
O=NN1CC=CCC1	1.18
CC1CCCN(N=O)C1 (configuration not stated)	0.99
CC1CN(N=O)CC(C)O1 (configuration not stated)	0.32
O=NN1CCC(O)CC1	-0.89
O=NN1CCNCC1	0.18
CC1(C)CCCC(C)(C)N1N=O	2.49
O=NN1CCC(c2ccccc2)CC1	2.59

Compound	logP
O=NN(CC(F)(F)F)CC(F)(F)F	2.15
O=NN1CCC(=O)CC1	-0.47
O=NN1CC=CC1	0.26
O=NN1CCCCC1	0.63
N#CCN(CC#N)N=O	0.04
CC1CCN(N=O)CC1	1.05
CN(N=O)C1CCCCC1	1.43
CC1CC(C)CN(N=O)C1 (configuration not stated)	1.53
O=NN1CCCCCC1	0.92
CN(C)C(=O)N(C)N=O	0.36
O=NN1CCC(Cl)C(Cl)C1 (configuration not stated)	1.04
CCN(CC)C(=O)N(C)N=O	1.11
CN1CCN(N=O)CC1	0.2
CCN(N=O)C(=O)N(C)C	0.71
CCCCCCCCCCCCN(C)N=O	2.18
CC1CN(N=O)CCN1N=O (configuration not stated)	-0.28
O=NN1CCN(N=O)CC1	-0.85
CC1CCCCN1N=O (configuration not stated)	0.71
CCOCCN(CCOCC)N=O	0.79
O=NN1CCCC(O)C1 (configuration not stated)	-0.47
O=NN1CCCN(N=O)CC1	-0.51
O=NN1CCCCCCC1	1.48
CC1C(c2ccccc2)OCCN1N=O (configuration not stated)	2.09
